Assay results from patent EP2323645B1, “USE OF LOW-DOSE LOCAL ANAESTHETIC OR DERIVATIVES THEREOF FOR THERAPY OF CHRONIC PAIN, ESPECIALLY MIGRAINE” (priority 2008, dated 2010).

Test system: therapieresistenter chronischer Sensibilitätsstörungen an Armen und Händen mit Verlust der rohen Kraft
Test: Treatment of therapy-resistant chronic sensory disturbances of arms and hands with loss of strength
Assay type: in vivo, Patienten

CCN(CC)CC(=O)Nc1c(C)cccc1C [Lidocain]
Remission der Kraftlosigkeit (2 to 4 deep paravertebral injections, middle or lower cervical spine, 0,1 Gew.-%): Spontane Remission
Remission der Sensibilitätsstörungen (after further identical treatment sessions): vollständig nach zwei bis vier weiteren identisch reproduzierten Behandlungssitzungen
